Among the data in patent US11685732B2, “MYST family histone acetyltransferase inhibitors” (Epizyme, Inc., priority 2017, dated 2023) are IC50 values, retold here.

For orientation: IC50 means the midpoint of a concentration-inhibition curve.

One experiment deals with KAT-5 (Homo sapiens (Human), UniProt Q92993). Description: KAT-5 biochemical inhibition assay (SAMDI mass spectrometry). The procedure, abridged: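 Acetylation of 1 μM peptide by 9 nM enzyme with 0.5 μM acetyl-CoA (final) was run 90 min at 25° C in Tris pH 8.0 buffer with DTT, after compound preincubation at 2% DMSO. Formic acid stopped the reaction, and product was quantified by SAMDI mass spectrometry to derive IC50.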

A further experiment addresses KAT-7 (Homo sapiens (Human), UniProt O95251). Description: KAT-7 biochemical inhibition assay (SAMDI mass spectrometry). The essentials: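 Read-out was SAMDI time-of-flight MS of formic acid-quenched reactions (0.5% final). Compound dilutions (2% DMSO final) were pre-incubated with 6 nM KAT-7 in 50 mM Tris pH 8.0 with 1 mM DTT, then given 1 μM peptide substrate and 2 μM acetyl-CoA for 120 min at 25 °C. IC50 values were derived.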

For a further experiment, the target named is KAT-6A (Homo sapiens (Human), UniProt Q92794). Briefly: KAT-6A biochemical inhibition assay (SAMDI mass spectrometry). The procedure, abridged:
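IC50 values came from SAMDI time-of-flight mass spectrometry after formic acid quench (0.5% final). Acetylation ran 90 min at 25 °C with 1 μM acetyl coenzyme A and 1 μM peptide substrate, following compound pre-incubation with 12.5 nM KAT-6A in Tris buffer pH 8.0 containing DTT, 2% DMSO final.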

Another experiment has as its target KAT-8 (Homo sapiens (Human), UniProt Q9H7Z6). Description: KAT-8 biochemical inhibition assay (SAMDI mass spectrometry). The procedure, abridged:
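Acetylation of 1 μM peptide substrate with 5 μM acetyl-CoA by 12.5 nM enzyme, compound pre-incubated, 2% DMSO, Tris pH 8.0 buffer with DTT, 25 °C for 90 min. Quench with 0.5% formic acid; product read by SAMDI mass spectrometry to give IC50.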

KAT-8, sequence (Q9H7Z6 other isoform, or with tags, fused parts or gaps): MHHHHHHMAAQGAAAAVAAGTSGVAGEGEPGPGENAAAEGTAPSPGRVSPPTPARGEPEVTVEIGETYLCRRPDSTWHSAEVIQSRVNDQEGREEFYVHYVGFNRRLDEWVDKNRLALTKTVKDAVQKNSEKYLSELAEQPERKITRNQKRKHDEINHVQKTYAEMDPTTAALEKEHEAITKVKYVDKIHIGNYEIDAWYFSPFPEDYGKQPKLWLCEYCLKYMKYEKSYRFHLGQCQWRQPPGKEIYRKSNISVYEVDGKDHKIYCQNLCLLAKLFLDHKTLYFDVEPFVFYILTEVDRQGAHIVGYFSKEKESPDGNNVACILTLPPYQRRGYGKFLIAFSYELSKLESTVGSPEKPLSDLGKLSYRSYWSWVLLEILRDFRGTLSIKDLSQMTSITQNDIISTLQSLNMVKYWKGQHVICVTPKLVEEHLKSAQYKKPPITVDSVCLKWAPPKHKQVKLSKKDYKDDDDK
KAT-6A, sequence (Q92794 other isoform, or with tags, fused parts or gaps): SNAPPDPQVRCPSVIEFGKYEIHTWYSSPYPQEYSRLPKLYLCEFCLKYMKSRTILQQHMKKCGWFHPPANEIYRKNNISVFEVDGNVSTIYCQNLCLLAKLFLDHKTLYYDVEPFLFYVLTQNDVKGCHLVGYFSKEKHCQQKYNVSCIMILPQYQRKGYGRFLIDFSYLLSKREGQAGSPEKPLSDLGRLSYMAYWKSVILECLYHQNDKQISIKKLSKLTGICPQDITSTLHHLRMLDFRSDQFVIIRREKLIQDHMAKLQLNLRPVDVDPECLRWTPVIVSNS
KAT-7, sequence (O95251 other isoform, or with tags, fused parts or gaps): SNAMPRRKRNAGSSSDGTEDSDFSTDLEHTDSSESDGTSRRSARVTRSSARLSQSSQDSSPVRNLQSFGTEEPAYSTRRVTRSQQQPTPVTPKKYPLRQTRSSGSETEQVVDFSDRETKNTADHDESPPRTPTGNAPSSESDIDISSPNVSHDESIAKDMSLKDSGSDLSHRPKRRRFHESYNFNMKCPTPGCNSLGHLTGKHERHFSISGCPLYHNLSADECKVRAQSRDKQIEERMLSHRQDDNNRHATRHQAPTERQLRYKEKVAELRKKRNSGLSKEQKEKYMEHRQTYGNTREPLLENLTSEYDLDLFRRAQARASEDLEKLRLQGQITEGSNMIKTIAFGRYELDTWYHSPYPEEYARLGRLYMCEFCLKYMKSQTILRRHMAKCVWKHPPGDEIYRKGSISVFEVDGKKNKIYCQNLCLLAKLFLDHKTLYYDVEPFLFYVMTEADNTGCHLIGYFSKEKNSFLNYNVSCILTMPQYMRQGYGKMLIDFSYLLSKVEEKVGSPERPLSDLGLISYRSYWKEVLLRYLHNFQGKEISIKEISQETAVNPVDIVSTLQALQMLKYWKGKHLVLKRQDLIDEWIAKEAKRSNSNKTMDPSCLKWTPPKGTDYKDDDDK
KAT-5, sequence (Q92993 other isoform, or with tags, fused parts or gaps): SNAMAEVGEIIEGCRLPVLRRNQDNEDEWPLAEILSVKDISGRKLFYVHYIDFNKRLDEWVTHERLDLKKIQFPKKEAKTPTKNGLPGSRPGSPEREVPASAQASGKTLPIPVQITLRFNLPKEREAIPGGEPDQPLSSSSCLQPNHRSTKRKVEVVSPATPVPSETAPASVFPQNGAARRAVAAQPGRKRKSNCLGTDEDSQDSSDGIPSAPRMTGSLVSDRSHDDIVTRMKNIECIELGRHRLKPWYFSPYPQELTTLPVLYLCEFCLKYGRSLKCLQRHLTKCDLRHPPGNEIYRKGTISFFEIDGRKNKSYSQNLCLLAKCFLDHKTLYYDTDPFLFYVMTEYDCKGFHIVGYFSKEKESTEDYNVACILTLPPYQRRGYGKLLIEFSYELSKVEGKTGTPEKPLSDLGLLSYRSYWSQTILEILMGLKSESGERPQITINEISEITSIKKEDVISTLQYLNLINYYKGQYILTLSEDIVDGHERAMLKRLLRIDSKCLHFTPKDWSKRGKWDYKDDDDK

As to `Cn1cnc(-c2cc(F)c(F)c(C(=O)NNS(=O)(=O)CC3CCOCC3)c2)c1` [Compound I-150], the IC50 at KAT-5 was 10 to 50 µM; against KAT-7 it was less than 10 µM; at KAT-6A, 10 to 50 µM; against KAT-8 it was 10 to 50 µM.
Take `CCCn1cc(-c2cc(C)c(F)c(C(=O)NNS(=O)(=O)C3CCCCC3)c2)cn1` [Compound I-151]: the IC50 was 50 to 100 µM against KAT-5, 10 to 50 µM against KAT-7, greater than 100 µM on KAT-6A and greater than 100 µM against KAT-8.
As to `COCCn1cc(-c2cc(C)c(F)c(C(=O)NNS(=O)(=O)C3CCCCC3)c2)cn1` [Compound I-152], the IC50 against KAT-5 is 10 to 50 µM; on KAT-7, greater than 100 µM; at KAT-6A, greater than 100 µM; against KAT-8, greater than 100 µM.
Regarding `Cc1cc(-c2cncn2C)cc(C(=O)NNS(=O)(=O)C2CCCCC2)c1F` [Compound I-153], the IC50 against KAT-5, on KAT-7, on KAT-6A and on KAT-8 was greater than 100 µM in each case.
Take `CCn1cc(-c2cc(C)c(F)c(C(=O)NNS(=O)(=O)C3CCCCC3)c2)cn1` [Compound I-154]: the IC50 was 10 to 50 µM against KAT-5, less than 10 µM against KAT-7, greater than 100 µM against KAT-6A and greater than 100 µM against KAT-8.
As for `Cc1cc(-c2cnn(C(C)C)c2)cc(C(=O)NNS(=O)(=O)C2CCCCC2)c1F` [Compound I-155], the half-inhibitory concentration (IC50) against KAT-5 was greater than 100 µM; at KAT-7, 10 to 50 µM; at KAT-6A, greater than 100 µM; on KAT-8, greater than 100 µM.
Take `Cc1cc(-c2cnn(C)c2)cc(C(=O)NNS(=O)(=O)C2CCCCC2)c1F` [Compound I-156]: the IC50 was 10 to 50 µM against KAT-5, less than 10 µM on KAT-7, greater than 100 µM on KAT-6A and greater than 100 µM at KAT-8.
Consider `Cn1cc(-c2cc(Cl)c(F)c(C(=O)NNS(=O)(=O)CC3CCCCC3)c2)cn1` [Compound I-158], for which the IC50 at KAT-5 is less than 10 µM; at KAT-7, less than 10 µM; against KAT-6A it was 10 to 50 µM; against KAT-8, greater than 100 µM.
In the case of `CNC(=O)N1CC(CS(=O)(=O)NNC(=O)c2cc(-c3cn(C)cn3)cc(Cl)c2F)C1` [Compound I-160], the IC50 was 10 to 50 µM against KAT-5, less than 10 µM against KAT-7, 10 to 50 µM on KAT-6A and 10 to 50 µM against KAT-8.
`COc1ccc(CN(C)C(=O)N[C@H]2C[C@@H](CS(=O)(=O)NNC(=O)c3cc(-c4cn(C)cn4)cc(Cl)c3F)C2)cc1` [Compound I-161]: the half-maximal inhibitory concentration (IC50) at KAT-5 was less than 10 µM; on KAT-7, less than 10 µM; on KAT-6A, less than 10 µM; against KAT-8, 10 to 50 µM.
As to `COc1ccc(CN(C)C(=O)N2CC[C@H](CS(=O)(=O)NNC(=O)c3cc(-c4cn(C)cn4)cc(Cl)c3F)C2)cc1` [Compound I-162], the IC50 at KAT-5 was less than 10 µM; against KAT-7 it was less than 10 µM; against KAT-6A, 10 to 50 µM; against KAT-8, 10 to 50 µM.
For `CN(C)C(=O)N[C@H]1CC[C@@H](CS(=O)(=O)NNC(=O)c2cc(-c3cn(C)cn3)cc(Cl)c2F)CC1` [Compound I-163], the IC50 on KAT-5 is less than 10 µM; against KAT-7, less than 10 µM; against KAT-6A, less than 10 µM; on KAT-8 it was 10 to 50 µM.
With `CCS(=O)(=O)N1CC(CS(=O)(=O)NNC(=O)c2cc(-c3cn(C)cn3)cc(Cl)c2F)C1` [Compound I-164], the IC50 is 10 to 50 µM against KAT-5, less than 10 µM against KAT-7, less than 10 µM at KAT-6A and 10 to 50 µM on KAT-8.
With `O=C(NNS(=O)(=O)CC1CCOCC1)c1cc(-n2cncn2)cc(Cl)c1F` [Compound I-165], the IC50 against KAT-5, at KAT-7, against KAT-6A and at KAT-8 was 10 to 50 µM each time.
In the case of `CN(C)C(=O)N1CC(CS(=O)(=O)NNC(=O)c2cc(-c3cn(C)cn3)cc(Cl)c2F)C1` [Compound I-167], the IC50 at KAT-5 is 10 to 50 µM; on KAT-7, less than 10 µM; on KAT-6A, less than 10 µM; against KAT-8, 10 to 50 µM.
As for `CCNC(=O)N1CC(CS(=O)(=O)NNC(=O)c2cc(-c3cn(C)cn3)cc(Cl)c2F)C1` [Compound I-168], the IC50 at KAT-5 was 10 to 50 µM; on KAT-7, less than 10 µM; on KAT-6A, 10 to 50 µM; on KAT-8, 10 to 50 µM.
Turning to `Cn1cnc(-c2cc(Cl)c(F)c(C(=O)NNS(=O)(=O)CC3CN(C(=O)N4CCC4)C3)c2)c1` [Compound I-169], the IC50 on KAT-5 was 10 to 50 µM; against KAT-7 it was less than 10 µM; on KAT-6A, less than 10 µM; on KAT-8 it was 10 to 50 µM.
Take `Cn1cnc(-c2cc(Cl)c(F)c(C(=O)NNS(=O)(=O)CC3CN(S(=O)(=O)C4CCC4)C3)c2)c1` [Compound I-170]: the IC50 is 10 to 50 µM on KAT-5, less than 10 µM against KAT-7, less than 10 µM against KAT-6A and 10 to 50 µM at KAT-8.
For `COc1ccc(CN(C)C(=O)N2CCCC(CS(=O)(=O)NNC(=O)c3cc(-c4cn(C)cn4)cc(Cl)c3F)C2)cc1` (stereo not drawn) [Compound I-171], the IC50 at KAT-5 was less than 10 µM; against KAT-7, less than 10 µM; against KAT-6A it was less than 10 µM; on KAT-8 it was 10 to 50 µM.
Turning to `CNC(=S)N1CC[C@H](CS(=O)(=O)NNC(=O)c2cc(-c3cn(C)cn3)cc(Cl)c2F)C1` [Compound I-172], the IC50 is less than 10 µM against KAT-5, less than 10 µM on KAT-7, less than 10 µM on KAT-6A and 10 to 50 µM against KAT-8.
Regarding `Cn1cnc(-c2cc(Cl)c(F)c(C(=O)NNS(=O)(=O)C[C@H]3C[C@@H](NS(C)(=O)=O)C3)c2)c1` [Compound I-173], the IC50 is less than 10 µM against KAT-5, less than 10 µM on KAT-7, less than 10 µM at KAT-6A and 10 to 50 µM at KAT-8.
Take `COc1ccc(CNC(=O)N[C@H]2C[C@H](CS(=O)(=O)NNC(=O)c3cc(-c4cn(C)cn4)cc(Cl)c3F)C2)cc1` [Compound I-174]: the IC50 on KAT-5 is less than 10 µM; at KAT-7 it was less than 10 µM; at KAT-6A, less than 10 µM; at KAT-8, 10 to 50 µM.
For `COc1ccc(CN(C)C(=O)N[C@H]2C[C@H](CS(=O)(=O)NNC(=O)c3cc(-c4cn(C)cn4)cc(Cl)c3F)C2)cc1` [Compound I-175], the IC50 against KAT-5 is less than 10 µM; at KAT-7 it was less than 10 µM; against KAT-6A, less than 10 µM; against KAT-8, 10 to 50 µM.
For `CNC(=O)N[C@H]1CC[C@H](CS(=O)(=O)NNC(=O)c2cc(-c3cn(C)cn3)cc(Cl)c2F)CC1` [Compound I-176], the IC50 is less than 10 µM against KAT-5, less than 10 µM against KAT-7, less than 10 µM on KAT-6A and 10 to 50 µM against KAT-8.
For the molecule `COc1ccc(CNC(=O)NC2CCC(CS(=O)(=O)NNC(=O)c3cc(-c4cn(C)cn4)cc(Cl)c3F)CC2)cc1` (stereo not drawn) [Compound I-177], the IC50 on KAT-5, at KAT-7, on KAT-6A and at KAT-8 was less than 10 µM in each case.
Take `CCCS(=O)(=O)N1CC(CS(=O)(=O)NNC(=O)c2cc(-c3cn(C)cn3)cc(Cl)c2F)C1` [Compound I-178]: the IC50 on KAT-5 was 10 to 50 µM; on KAT-7, less than 10 µM; against KAT-6A, less than 10 µM; at KAT-8, 10 to 50 µM.
For `COc1ccc(CN(C)C(=O)N2CC[C@@H](CS(=O)(=O)NNC(=O)c3cc(-c4cn(C)cn4)cc(Cl)c3F)C2)cc1` [Compound I-179], the IC50 against KAT-5 was less than 10 µM; against KAT-7, less than 10 µM; against KAT-6A, less than 10 µM; against KAT-8, 10 to 50 µM.
